The term MRT denotes a mean duration of stay, worked out from the concentration-time curve. What is called half-life is the time in which the quantity being followed falls by half. A low value points to rapid decline. In general, Papp A→B refers to the apparent permeability from the apical to the basolateral side of a cell layer. For orientation: solubility means how much of the substance goes into solution per volume. By Tmax is commonly meant the time at which the peak concentration occurs. As a reminder, the Cmax is the highest concentration seen after dosing. Broadly, the IC50 is the concentration needed to halve the response being measured. Read a high IC50 as a need for much substance.

≈ marks a conversion by molar mass, not a printed value.

Data set [1] is described as follows: Mean residence time in mouse at 25 mg/kg, po. Conditions: in vivo; call rule not given here.
For a further data set, the system named is Plasma. Put plainly: Drug uptake in plasma of mouse xenografted with human A549 cells at 150 mg/kg, po measured at 2 to 24 hrs. The data set is classed as ADME, organism-based. Conditions: in vivo. In general terms: A xenograft is tissue or cells of one species grown in another, often human tumour cells in immunodeficient mice.
The subject of the next data set is A549. Description: Drug uptake in human A549 cells xenografted in mouse at 150 mg/kg, po measured at 2 to 24 hrs. The class given is ADME, organism-based. Conditions: in vivo.
The nature of data set [2]: Half life in mouse hepatocytes.
Data set [3] in a line: Apparent permeability from apical to basolateral side in human Caco2 cells. The settings on record: Caco-2.
The nature of data set [4]: Aqueous solubility of compound. The class given is physicochemical. The settings on record: aqueous medium.
Data set [5] is described as follows: Mean residence time in mouse at 3 mg/kg, iv. Conditions: in vivo.
A short description of data set [6]: in vivo. Conditions: mouse, po, 25 mg/kg.
Description: Tmax in mouse at 25 mg/kg, po
A short description of data set [7]: in vivo. Conditions: mouse, po, 25 mg/kg. The source holds these as a separate data set.
Description: Cmax in mouse at 25 mg/kg, po
In data set [8] the target is Transitional endoplasmic reticulum ATPase (Homo sapiens, UniProt P55072). Description: Inhibition of p97 ATPase (unknown origin).
Transitional endoplasmic reticulum ATPase, sequence (P55072 whole entry): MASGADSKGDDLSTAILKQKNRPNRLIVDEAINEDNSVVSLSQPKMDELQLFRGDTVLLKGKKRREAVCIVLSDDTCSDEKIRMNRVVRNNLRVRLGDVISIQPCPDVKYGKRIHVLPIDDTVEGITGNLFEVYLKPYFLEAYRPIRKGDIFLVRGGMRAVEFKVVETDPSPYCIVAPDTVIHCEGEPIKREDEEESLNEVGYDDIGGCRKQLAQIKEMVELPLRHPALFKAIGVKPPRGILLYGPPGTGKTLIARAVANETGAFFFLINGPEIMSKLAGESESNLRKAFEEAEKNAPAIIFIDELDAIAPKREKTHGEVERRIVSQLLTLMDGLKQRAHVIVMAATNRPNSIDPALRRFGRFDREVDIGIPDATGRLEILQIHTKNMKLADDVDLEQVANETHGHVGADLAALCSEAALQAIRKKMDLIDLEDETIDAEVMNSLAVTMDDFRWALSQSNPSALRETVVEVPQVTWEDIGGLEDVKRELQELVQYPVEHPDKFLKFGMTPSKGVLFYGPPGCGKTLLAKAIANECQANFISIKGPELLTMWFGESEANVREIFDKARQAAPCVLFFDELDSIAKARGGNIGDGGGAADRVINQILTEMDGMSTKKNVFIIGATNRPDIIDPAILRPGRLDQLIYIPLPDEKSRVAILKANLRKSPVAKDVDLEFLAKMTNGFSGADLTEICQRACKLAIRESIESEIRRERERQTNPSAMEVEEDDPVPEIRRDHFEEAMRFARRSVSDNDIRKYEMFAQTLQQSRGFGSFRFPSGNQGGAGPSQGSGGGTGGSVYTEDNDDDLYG

On to `Cc1cc2c(C(N)=O)cccc2n1-c1nc2c(c(NCc3ccccc3)n1)COCC2` [CB-5083], for which the MRT in data set [1] worked out at 3.05 h; in data set [5] it was 1.17 h. Further, the Drug uptake result in the data set on Plasma and in the data set on A549 was “Active” each time. The half-life in data set [2] amounted to 2.87 h. The Papp A→B in data set [3] came out at 52.4 ×10⁻⁶ cm/s. The compound further had a solubility in [4] of 32 µg/mL (≈ 77.4 µM). Besides, the Tmax in “in vivo [6]” was 0.5 h. Moreover, the Cmax in the data set “in vivo [7]” came out at 7.95 µM.

In data set [8], `O=C(CCl)Nc1cccc(NC2=NS(=O)(=O)c3ccccc32)c1` showed an IC50 of 370 nM. This counts as sub-micromolar.

The record behind these values is ChEMBL document CHEMBL3745611 (J Med Chem, 2015).
